Source: US20260137707A1, “METHODS OF MODULATING ATXN2 EXPRESSION” (University of Utah Research Foundation, priority 2022, published 2026)
Structures can show the parent of a compound that is named as a salt. Where two headings read alike, the source gives them in different places.

Columns and labels:
ATXN2-luc [1] = settings: H2 cells
ATXN2-luc [2] = assay: cells; settings: for activity at 1 µM: read-out: Luc at 1 μm; for activity at 10 µM: read-out: Luc at 10 μm
[3] = Table 1, 24 hrs, single 10 μM dose, Z-score of luciferase

| Molecule | SD from Mean (ATXN2-luc [1]; [3]) [SD] | other results |
| --- | --- | --- |
| C[C@H]1O[C@@H](O[C@H]2[C@@H](O)C[C@H](O[C@H]3[C@@H](O)C[C@H](O[C@H]4CC[C@@]5(C)[C@H](CC[C@@H]6[C@@H]5CC[C@]5(C)[C@@H](C7=CC(=O)OC7)[C@@H](O)C[C@]65O)C4)O[C@@H]3C)O[C@@H]2C)C[C@H](O)[C@@H]1O [GITOXIN] | −4.086 | SD from Mean (ATXN2-luc [1]; Table 5S, pilot screen, 10 μM): −4.086 SD; activity at 1 µM (ATXN2-luc [2]): 21%; activity at 10 µM (ATXN2-luc [2]): 12% |
| COC(=O)C[C@](O)(CCCC(C)(C)O)C(=O)O[C@@H]1C(OC)=C[C@]23CCCN2CCc2cc4c(cc2[C@H]13)OCO4 [HOMOHARRINGTONINE] | −3.117 |  |
| CC(=O)[C@]1(O)Cc2c(O)c3c(c(O)c2[C@@H](O[C@H]2C[C@H](N)[C@H](O)[C@H](C)O2)C1)C(=O)c1ccccc1C3=O [IDARUBICIN HCl] |  | SD from Mean (ATXN2-luc [1]; Table 1, 24 hrs, single 10 μM dose, Z-score of luciferase, HCl): −2.944 SD |
| CC(=O)[C@]1(O)Cc2c(O)c3c(c(O)c2[C@@H](O[C@H]2C[C@H](N)[C@H](O)[C@H](C)O2)C1)C(=O)c1ccccc1C3=O [IDARUBICIN] | −2.719 |  |
| CC(C)[N+](C)(CCC(C(N)=O)(c1ccccc1)c1ccccc1)C(C)C [ISOPROPAMIDE IODIDE] | −4.073 |  |
| CNC1CC(c2ccc(Cl)c(Cl)c2)c2ccccc21 (stereo not drawn) [Indatraline] |  | activity at 10 µM (ATXN2-luc [2]): 6% |
| Cl.Cl.O=C1c2c(O)ccc(O)c2C(=O)c2c(NCCNCCO)ccc(NCCNCCO)c21 [MITOXANTHRONE HYDROCHLORIDE] | −4.333 |  |
| CC1=CC(=O)c2ccccc2C1=O [Menadione] | −3.434 | activity at 10 µM (ATXN2-luc [2]): 35% |
| O=C1c2c(O)ccc(O)c2C(=O)c2c(NCCNCCO)ccc(NCCNCCO)c21 [Mitoxantrone dihydrochloride] | −3.666 |  |
| CO[C@H]1[C@H](O)[C@H](O[C@H]2CC[C@@]3(C)[C@H](CC[C@@H]4[C@@H]3CC[C@]3(C)[C@@H](C5=CC(=O)OC5)CC[C@]43O)C2)O[C@@H](C)[C@@H]1O [NERIIFOLIN] | −3.045 | activity at 1 µM (ATXN2-luc [2]): 17%; activity at 10 µM (ATXN2-luc [2]): 17% |
| O=C(Nc1ccc([N+](=O)[O-])cc1Cl)c1cc(Cl)ccc1O [Niclosamide] | −4.393 |  |
| N=C1C=CC(=C(c2ccc(N)cc2)c2ccc(N)cc2)C=C1 [PARAROSANILINE PAMOATE] | −2.740 |  |
| O=C1C=C2C(=CCOC2O)O1 (stereo not drawn) [PATULIN] | −3.651 |  |
| CO[C@H]1C[C@H](O[C@H]2CC[C@]3(C)[C@H]4CC[C@]5(C)[C@@H](C6=CC(=O)OC6)CC[C@]5(O)[C@@H]4CC[C@]3(O)C2)O[C@H](C)[C@H]1O [PERIPLOCYMARIN] | −2.759 | activity at 1 µM (ATXN2-luc [2]): 75%; activity at 10 µM (ATXN2-luc [2]): 17% |
| COC(=O)[C@]1(C)CC[C@]2(C)CC[C@]3(C)C4=CC=C5C(=CC(=O)C(O)=C5C)[C@]4(C)CC[C@@]3(C)[C@@H]2C1 [PRISTIMERIN] | −3.883 |  |
| COc1ccc(C[C@H](N)C(=O)N[C@H]2[C@@H](O)[C@H](n3cnc4c(N(C)C)ncnc43)O[C@@H]2CO)cc1 [PUROMYCIN HYDROCHLORIDE] |  | SD from Mean (ATXN2-luc [1]; Table 1, 24 hrs, single 10 μM dose, Z-score of luciferase, HYDROCHLORIDE): −3.716 SD |
| COc1cc(/C=C/C(=O)N2CCC=CC2=O)cc(OC)c1OC [Piperlongumine] | −2.973 |  |
| COc1ccc(C[C@H](N)C(=O)N[C@H]2[C@@H](O)[C@H](n3cnc4c(N(C)C)ncnc43)O[C@@H]2CO)cc1 [Puromycin dihydrochloride] |  | SD from Mean (ATXN2-luc [1]; Table 1, 24 hrs, single 10 μM dose, Z-score of luciferase, dihydrochloride): −4.723 SD |
| CCN(CC)CCCC(C)Nc1c2ccc(Cl)cc2nc2ccc(OC)cc12 (stereo not drawn) [Quinacrine dihydrochloride dihydrate] | −3.270 |  |
| CC[C@@]1(O)C[C@H](O)c2c(cc3c(c2O)C(=O)c2c(O)ccc(O)c2C3=O)[C@H]1C(=O)OC [RUTILANTINONE] | −2.722 |  |
| C[C@@H]1O[C@@H](O[C@H]2C[C@@H](O)[C@]3(CO)[C@@H]4[C@@H](O)C[C@]5(C)[C@H](C6=CC(=O)OC6)CC[C@@]5(O)[C@H]4CC[C@]3(O)C2)[C@H](O)[C@H](O)[C@@H]1O [Strophantine octahydrate] | −3.624 |  |
| COc1cc([C@@H]2c3cc4c(cc3[C@@H](O[C@@H]3O[C@@H]5CO[C@@H](c6cccs6)O[C@H]5[C@H](O)[C@H]3O)[C@H]3COC(=O)[C@H]23)OCO4)cc(OC)c1O [TENIPOSIDE] | −2.832 |  |
| C[C@H]1CC[C@]2(NC1)O[C@H]1C[C@H]3[C@@H]4CC[C@H]5C[C@@H](O[C@@H]6O[C@H](CO)[C@H](O[C@@H]7O[C@H](CO)[C@@H](O)[C@H](O[C@@H]8OC[C@@H](O)[C@H](O)[C@H]8O)[C@H]7O[C@@H]7O[C@H](CO)[C@@H](O)[C@H](O)[C@H]7O)[C@H](O)[C@H]6O)CC[C@]5(C)[C@H]4CC[C@]3(C)[C@H]1[C@@H]2C [TOMATINE] | −4.999 |  |
| Lycorine hydrochloride | −2.968 |  |
| THIMEROSAL | −5.645 |  |
